Laboratory results as given in PubChem BioAssay (NCI).
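All cell lines were grown in 96-well plates and treated with compound for 48 hours. TGI: total growth inhibition.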

Experiments:
Assay in all cases: DTP human tumour cell line panel, 48 h
MALME-3M melanoma = system: MALME-3M melanoma
OVCAR-8 ovarian = system: OVCAR-8 ovarian
ACHN renal = system: ACHN renal
IGROV1 ovarian = system: IGROV1 ovarian
SK-MEL-2 melanoma = system: SK-MEL-2 melanoma
NCI-H522 lung = system: NCI-H522 lung
HOP-18 NSCLC = system: HOP-18 NSCLC
RPMI-8226 leukemia = system: RPMI-8226 leukemia
HL-60(TB) leukemia = system: HL-60(TB) leukemia
M14 melanoma = system: M14 melanoma
DMS 114 small cell lung = system: DMS 114 small cell lung
SF-295 CNS = system: SF-295 CNS
SW-620 colon = system: SW-620 colon
HT29 colon = system: HT29 colon
SNB-19 CNS = system: SNB-19 CNS
SK-MEL-28 melanoma = system: SK-MEL-28 melanoma
NCI-H226 lung = system: NCI-H226 lung
KM12 colon = system: KM12 colon
OVCAR-3 ovarian = system: OVCAR-3 ovarian
HCT-15 colon = system: HCT-15 colon
NCI-H23 lung = system: NCI-H23 lung
DLD-1 colon = system: DLD-1 colon
K-562 leukemia = system: K-562 leukemia
DMS 273 small cell lung = system: DMS 273 small cell lung
HCC-2998 colon = system: HCC-2998 colon
M19-MEL melanoma = system: M19-MEL melanoma
SF-539 CNS = system: SF-539 CNS
U251 CNS = system: U251 CNS
SR leukemia = system: SR leukemia
COLO 205 colon = system: COLO 205 colon
CAKI-1 renal = system: CAKI-1 renal
SF-268 CNS = system: SF-268 CNS
A549 NSCLC = system: A549 NSCLC
786-0 renal = system: 786-0 renal
OVCAR-4 ovarian = system: OVCAR-4 ovarian
SK-MEL-5 melanoma = system: SK-MEL-5 melanoma
UO-31 renal = system: UO-31 renal
SNB-75 CNS = system: SNB-75 CNS
NCI-H460 lung = system: NCI-H460 lung
UACC-62 melanoma = system: UACC-62 melanoma
HOP-62 NSCLC = system: HOP-62 NSCLC
KM20L2 colon = system: KM20L2 colon
RXF-631 renal = system: RXF-631 renal
HOP-92 NSCLC = system: HOP-92 NSCLC
LXFL 529 NSCLC = system: LXFL 529 NSCLC
RXF 393 renal = system: RXF 393 renal
CCRF-CEM leukemia = system: CCRF-CEM leukemia
SK-OV-3 ovarian = system: SK-OV-3 ovarian
MOLT-4 leukemia = system: MOLT-4 leukemia
SN12C renal = system: SN12C renal
UACC-257 melanoma = system: UACC-257 melanoma
HCT-116 colon = system: HCT-116 colon
OVCAR-5 ovarian = system: OVCAR-5 ovarian
EKVX NSCLC = system: EKVX NSCLC
SNB-78 CNS = system: SNB-78 CNS

Measured: TGI

Cc1ccc(C2=NN(C)COC2C(F)(F)F)cc1 (stereo not given)
> 100 µM: all assays above
